Entries after “also recorded” stand apart in the source; their conditions may differ. Where two headings read alike, the source gives them in different places.
Columns and labels:
[1] = system: WT Pseudomonas aeruginosa UCBPP-PA14; assay: Antibiotic treatment assay with viable plate counts (percent survival / log killing); conditions: for log killing: OD500=2, chlorate 10 mM, tobramycin 31.25 μg/mL
[2] = system: RPA (Riverside Pseudomonas aeruginosa) planktonic cultures; assay: In vitro planktonic drug treatment, viable cell counts; assay type: cell-based; conditions: 24 h, ciprofloxacin 10 μg/mL, sodium chlorate 10 mM
[3] = system: RPA Anar strain (AnarGHJI); conditions: 24 h
Procedure: (§1) All experiments used Luria-Bertani (LB; Difco) as the growth medium, supplemented with KNO3 as specified. Aerobic liquid cultures were incubated at 37° C. with shaking at 250 RPM. Anaerobic work was conducted in an anaerobic glove box with a 95% N2-5% H2 atmosphere, and anaerobic cultures were incubated at 37° C.
For in vitro planktonic drug treatment studies, overnight RPA cultures were grown aerobically in LB broth supplemented with 40 mM KNO3. […] Cell resuspensions were added to 96-well plates (150 μL per well), and one 96-well plate was incubated statically (not shaking) at 37° C. at ambient oxygen, while a duplicate 96-well plate was incubated statically at 37° C. under anoxia (anaerobic glove box). Drug treatments were incubated for 24 h, after which cultures were serially diluted for viable cell counts. Viable cell counts were performed by serially diluting samples in phosphate-buffered saline (PBS). […] After incubation at 37° C., colonies were counted to quantify colony-forming units (CFU) per milliliter for each culture. Percent survival was calculated for each condition by dividing CFU/mL values from a drug treated sample by the average CFU/mL value from control (no drug) samples and multiplying by 100. […]
For in vitro biofilm drug studies, agar block biofilm assays (ABBAs) were used. […] Viable cell counts and percent survival were calculated for ABBA samples as described above.

[4] = system: RPA-infected chronic wounds
Procedure: A diabetic mouse model (db/db−/−) of chronic wounds that mimics chronic wounds in humans was used to investigate wound healing.
Wounds were treated daily between 10 and 40 days postwounding.
The quality of wound healing in treated mice was characterized by performing histological and immunofluorescence analyses on day 40 wounds (FIG. 18 Panel A).
To distinguish between and visualize the distribution of collagen I and collagen III in the granulation tissue, the wounds were also stained with Picrosirius Red (PSR). […] Collagen IV immunolabeling was used to show whether basal lamina under the epidermis was present, an important indicator of proper connectivity of the epithelium with the underlying dermis. […] Keratin 14/16 is a cytokeratin found in proliferating keratinocytes of the epidermis and is observed in the cytoplasm surrounding the nucleus.
Blood vessel development during wound healing is another indicator of proper healing. The number of microvessels present in the granulation tissue was quantified by immunolabeling the wound tissue with a-smooth muscle actin (aSMA), a protein that is present in the cells surrounding blood vessels.

[5] = system: RPA-infected chronic wounds; conditions: diabetic mouse model, reference [227]; cited from earlier work
[6] = mammals lack Nar; cited from earlier work
[7] = system: P. aeruginosa biofilms; conditions: via Nar activity, reference [32]; cited from earlier work
[8] = humans; cited from earlier work
[9] = system: RPA aggregate biofilms; conditions: ABBA, 24 h; final 10 μg/mL ciprofloxacin, 10 mM sodium chlorate
Procedure: as §1
For in vitro biofilm drug studies, agar block biofilm assays (ABBAs) were used. Briefly, to set up ABBA, overnight RPA cultures were diluted to OD500=0.001 into cooled molten agar (44° C.) composed of LB with 5 mM KNO3 and 1% agar. Before the agar solidified, 500 μL of the cell-agar suspension was added to 2-mL Eppendorf tubes, after which samples were allowed to solidify. Eppendorf tubes were incubated at 37° C. for 24 h to allow cells to grow as aggregate biofilms suspended within the agar medium. After this growth incubation, ABBA samples were washed twice with 200 μL of PBS to remove cell growth that was not suspended within the agar. […] Drug treatments were incubated for 24 h at 37° C. To determine viable cell counts, ABBA samples were first homogenized by adding 300 μL of PBS to each sample and homogenizing on speed 3 with a Bio-Gen PRO200 Homogenizer (PRO Scientific).

[10] = five drugs of the study, hypoxic cultures
[11] = hypoxic conditions (static), 24 h, ciprofloxacin 1 μg/mL, ceftazidime 10 μg/mL
[12] = 24 h, hypoxic vs oxic conditions

Row | Compound | O2-dependence of efficacy (hypoxic compared to oxic) [1] | capacity for synergy across drug classes [1, 10] | synergy of chlorate-antibiotic combination ([1]; hypoxic conditions, 24 h) | toxicity / killing of P. aeruginosa cultures (in words) ([1]; hypoxic conditions, 24 h) | toxicity / killing of P. aeruginosa cultures (in words) ([1]; oxic conditions, 24 h) | susceptibility of planktonic cultures (in words) ([2]; anoxic (anaerobic glove box)) | susceptibility of planktonic cultures (in words) ([2]; oxic (static, ambient oxygen)) | toxicity / killing of P. aeruginosa cultures (in words) ([1]; anoxic conditions, 24 h) | log killing [1, 11] [log] | O2-dependence of efficacy (hypoxic compared to oxic) [1, 12] | also measured
1 | CC(C)(O/N=C(\C(=O)N[C@@H]1C(=O)N2C(C(=O)[O-])=C(C[n+]3ccccc3)CS[C@H]12)c1csc(N)n1)C(=O)O [ceftazidime] | does not exhibit O2-dependent efficacy | do not | synergizing | completely resistant; also recorded: remain viable | completely resistant |  |  |  |  |  | reduction of the effective (lethal, toxic) ceftazidime dose by chlorate addition [1]: > 100 fold; ceftazidime concentrations to which P. aeruginosa is resistant ([1]; hypoxic cultures, 24 h, ceftazidime alone): ≤ 1,000 μg/mL
2 | [O-][Cl+2]([O-])O [chlorate, sodium chlorate] |  | wide-ranging synergistic interactions; also recorded: broad capacity for synergy |  | little-to-no killing; also recorded: remain viable | nontoxic | highly susceptible | highly tolerant | most effective; also recorded: some toxicity | 0.2 |  | susceptibility of Nar-lacking strain (in words) [3]: highly resistant; effectiveness at promoting wound healing, comparison between treatments ([4]; day 40): as effective as ciprofloxacin; PSR staining: collagen I and collagen III in the granulation tissue ([4]; day 40 healed wounds): staining of both collagen I and collagen III; collagen IV immunolabeling: basement membrane under the epithelium ([4]; day 40 healed wounds): formed a basement membrane; aSMA immunolabeling: microvessels in the granulation tissue ([4]; day 40 wounds): showed microvessels; quality of the wound tissue ([4]; day 40 wounds, histology): significantly improved; healing of P. aeruginosa-infected chronic wounds by topical treatment [5]: supports the healing; toxicity against mammals [6]: low toxicity; killing of O2-limited, antibiotic-tolerant biofilm populations [7]: kills; estimated lethal oral dose [8]: 20-35 grams; log killing ([1]; anoxic conditions (anaerobic glove box), 24 h): ~2.5 log; toxicity / killing of P. aeruginosa cultures (in words) ([1]; anoxic conditions, 24 h, listed as Chlorate): most toxic; toxicity / killing of P. aeruginosa cultures (in words) ([1]; hypoxic conditions, 24 h, listed as Chlorate): nontoxic
3 | O=C(O)c1cn(C2CC2)c2cc(N3CCNCC3)c(F)cc2c1=O [ciprofloxacin] | substantially less toxic |  | synergizing |  |  | highly susceptible | highly susceptible |  | ~1.5 |  | killing / susceptibility of aggregate biofilms (in words) [9]: susceptible to ciprofloxacin but show greater survival than planktonic cells
4 | NC[C@H]1O[C@H](O[C@H]2[C@H](O)[C@@H](O[C@H]3O[C@H](CO)[C@@H](O)[C@H](N)[C@H]3O)[C@H](N)C[C@@H]2N)[C@H](N)C[C@@H]1O [tobramycin] |  |  |  |  | most effective |  |  | some toxicity |  | substantially less toxic | capacity for synergy across drug classes [1]: do not; synergy of chlorate-antibiotic combination [1]: synergizing; toxicity / killing of P. aeruginosa cultures (in words) ([1]; oxic conditions, 24 h, listed as Tobramycin): below our detection limit
5 | colistin |  | wide-ranging synergistic interactions; also recorded: broad capacity for synergy | synergizing |  |  |  |  |  |  | only marginally less effective at killing hypoxic cultures | P. aeruginosa viability after colistin combined with tobramycin, ciprofloxacin or ceftazidime [1]: below our detection limit; synergy in antibiotic-antibiotic combinations ([1]; hypoxic conditions, 24 h): displays synergistic interactions; also recorded: synergized

Reference: patent US20250241944A1 (CALIFORNIA INSTITUTE OF TECHNOLOGY, priority 2023, published 2025)
